These results are taken from US20160151505A1 (KONINKLIJKE PHILIPS N.V., priority 2011, published 2016).

SMILES strings stand for the structures. Where two headings read alike, the source gives them in different places. Marks after values point to notes of the source that are not given here.

Data set [1] in a line: Hydrolytic stability tests of tetrazines. The data set is classed as physicochemical. From the text:
This solution was filtered and, the decrease of the absorption band at 525 nm was monitored using UV spectroscopy.

Data set [2] can be described thus: Reactivity of tetrazines towards trans-cyclooct-4-ene-1-ol (competition experiment). The note with it: reference tetrazine 5; reaction with trans-cyclooct-4-ene-1-ol (axial isomer). As for the experimental part:
A competition experiment was performed to determine the reactivity ratio of a specific tetrazine and 3-(5-acetamido-2-pyridyl)-6-(2-pyridyl)-1,2,4,5-tetrazine (that was chosen as the reference tetrazine), in the inverse-electron demand Diels-Alder reaction with trans-cyclooct-4-ene-1-ol (“minor” isomer with OH in axial position, see: Whitham et al. J. Chem. Soc. (C), 1971, 883-896)).
To acetonitrile (0.100 mL) was added 5 μL of a solution of the specific tetrazine in DMSO (25 mM) and 5 μL of a solution of the reference tetrazine in DMSO (25 mM). This mixture was diluted with water (0.9 mL), and the absolute amounts of both tetrazines were determined by HPLC-MS/PDA analysis. Subsequently, a solution of trans-cyclooct-4-ene-1-ol (axial isomer) in DMSO (25 μL 2.5 mM) was slowly added, and the mixture was stirred for 5 min. Again, the absolute amounts of both tetrazines were determined by HPLC-MS/PDA analysis, and conversions for both tetrazines was calculated. From these conversions, the reactivity ratio (R=k2,TCO/k2,Ref) of both tetrazines was calculated using the mathematical procedure from Ingold and Shaw (J. Chem. Soc., 1927, 2918-2926).

The nature of data set [3]: Stability of trans-cyclooctene derivatives in PBS. The note with it: PBS buffer.
Experimental: (§1) 10 μL of a solution of the specific trans-cyclooctene derivative in dioxane (25 mM) was diluted with PBS buffer (3 mL), and this solution was stored at 20° C. in the dark.
(§2) The fate of the TCO compound was monitored by HPLC-MS analysis, and an estimation of the half-life time was made based on the release of the model prodrug.
Data set [4] is described as follows: Second-order rate constant determination of trans-cyclooctene derivatives with tetrazine. As to conditions: UV-visible spectroscopy in acetonitrile at 20° C. As for the experimental part: The kinetics of the inverse-electron demand Diels-Alder reaction of a trans-cyclooctene derivative with 3-(5-acetamido-2-pyridyl)-6-(2-pyridyl)-1,2,4,5-tetrazine, performed in acetonitrile at 20° C., was determined using UV-visible spectroscopy. A cuvette was filled with acetonitrile (3 mL) and equilibrated at 20° C. 3-(5-Acetamido-2-pyridyl)-6-(2-pyridyl)-1,2,4,5-tetrazine (2.50×10^−7 mol) was added, followed by the trans-cyclooctene derivative (2.50×10^−7 mol). The decay of the absorption at λ=540 nm was monitored, and from this curve the second-order rate constant, k2, was determined assuming second order rate kinetics.

The nature of data set [5]: physchem. As to conditions: buffer.
Experimental: as §1, §2
A short description of data set [6]: Activation of doxorubicin prodrugs (release of doxorubicin). As to conditions: after 1 hr at 20° C. As for the experimental part:
[…] Next, […](E)-cyclooctene-doxorubicin conjugate (64, 2.67×10^−5 g; 2.50×10^−8 mol) was added.
[…] Next, (E)-cyclooctene-doxorubicin conjugate (68, 2.67×10^−5 g; 2.50×10^−8 mol) was added.

In data set [7] the test system is A431 squamous carcinoma cells. In words: Cell proliferation assay (MTT). The class given is cell-based. As to conditions: Homo sapiens.
Data set [8] is described as follows: Reactivity of tetrazines towards trans-cyclooct-4-ene-1-ol (competition experiment). As to conditions: values marked *: 50:50 mixture of PBS and acetonitrile; reference tetrazine 5.
Setting [9] is: values marked *: 50:50 mixture of PBS and acetonitrile.
The mark [10] stands for this setting: stability in PBS at 20° C. t1/2, PBS, 20° C.
Setting [11] is: stability in PBS t1/2, PBS, 37° C.

For the compound `c1csc(-c2nnc(-c3cccs3)nn2)c1`, the half-life at 83 µM in data set [1] (setting [9]) is greater than 300 h.
`CCCC(=O)Nc1ccc(-c2nnc(C)nn2)nc1` showed a half-life at 83 µM in data set [1] (PBS buffer, PBS, 20° C.) of 300 h. In data set [2], the “Reactivity ratio (R = k2,TZ/k2,Ref)” value is reported as 0.18.
Turning to `c1ccc(-c2nnc(-c3ccccc3)nn2)cc1`, the half-life at 83 µM in data set [1] (setting [9]) is greater than 300 h.
With `N[C@H]1CC/C=C/CC[C@H]1NC(=O)Oc1ccccc1` (relative stereo) [compound 36, cis-(E)-phenyl(8-aminocyclooct-4-en-1-yl)carbamate], the half-life at 83 µM in data set [3] is 27 h. The “rate contant* k2” value in data set [4] amounted to 240 M⁻¹ s⁻¹.
In data set [3], `COc1ccccc1OC(=O)NC1CC/C=C/CCC1N` (stereo not shown) [compound 41] showed a half-life at 83 µM of 21 h.
For `Nc1ccc(-c2nnc(-c3ccc(N)cc3)nn2)cc1` [compound 13, 3,6-bis(4-aminophenyl)-1,2,4,5-tetrazine], the half-life at 83 µM in data set [1] (setting [9]) was greater than 300 h.
For `NC1/C=C/CCCCC1NC(=O)Oc1ccccc1` (stereo not drawn) [compound 56, trans phenyl(E)-2-aminocyclooct-3-en-1-yl carbamate], in data set [3], the half-life at 83 µM is 120 h.
The same measure, in the same setting: next, `NC1CC/C=C/CCC1NC(=O)Nc1ccccc1` (stereo not drawn) [47 major, cis phenyl((E)-8-aminocyclooct-4-en-1-yl)urea]: greater than 480 h.
For the compound `CC(=O)Nc1ccc(-c2nnc(-c3ccccn3)nn2)nc1` [compound 5, 3-(5-acetamido-2-pyridyl)-6-(2-pyridyl)-1,2,4,5-tetrazine], in data set [1] (PBS buffer, PBS, 20° C.), the half-life at 83 µM was 80 h. The “Reactivity ratio (R = k2,TZ/k2,Ref)” value in data set [2] is given as 1.
`COc1cc(COC(=O)NC2CC/C=C/CCC2N)cc(OC)c1OC` (stereo not drawn) [compound 37, cis-(E)-3,4,5-trimethoxybenzyl(8-aminocyclooct-4-en-1-yl)carbamate]: in data set [3], the half-life at 83 µM was greater than 240 h. Moreover, in data set [4], the “rate contant* k2” value was 300 M⁻¹ s⁻¹.
For `O=C(Oc1ccccc1)N1C/C=C/CNCC1` [compound 61, (E)-phenyl 2,3,4,5-tetrahydro-1,4-diazocine-1(8H)-carboxylate], the half-life at 83 µM in data set [3] is greater than 480 h. The “rate contant* k2” value in data set [4] turned out to be 47 M⁻¹ s⁻¹.
With `Nc1ccc(-c2nnc(-c3ccccn3)nn2)nc1`, the half-life at 83 µM in data set [1] (PBS buffer, PBS, 20° C.) is 340 h. Also, in data set [2], the “Reactivity ratio (R = k2,TZ/k2,Ref)” value was 0.4.
On the same counts, the results for `Cc1nnc(-c2ccccn2)nn1` [compound 7, 3-(2-pyridyl)-6-methyl-1,2,4,5-tetrazine] are 230 h and 0.25.
Consider `c1c[nH]c(-c2nnc(-c3ncc[nH]3)nn2)n1`, for which, in data set [2], the “Reactivity ratio (R = k2,TZ/k2,Ref)” value turned out to be 1.2.
With `COc1cccc2c1C(=O)c1c(O)c3c(c(O)c1C2=O)C[C@@](O)(C(=O)CO)C[C@@H]3OC1CC(NC(=O)OCc2cc(C)c(CC(=O)NC3CC/C=C/CCC3N)c(C)c2)[C@H](O)C(C)O1` (stereo partly shown) [compound 68, (E)-cyclooctene-doxorubicin conjugate], the half-life is 624 h in data set [5] (setting [10]) and 149 h in data set [5] (setting [11]).
As for `c1cnc(-c2nnc(-c3cnccn3)nn2)cn1`, in data set [1] (PBS buffer, PBS, 20° C.), the half-life at 83 µM is 0.68 h. For the same compound, the “Reactivity ratio (R = k2,TZ/k2,Ref)” value in data set [2] stood at 1.5.
As to `c1cc(-c2nnc(-c3ccsc3)nn2)cs1`, in data set [1] (setting [9]), the half-life at 83 µM is greater than 300 h.
With `COc1cccc2c1C(=O)c1c(O)c3c(c(O)c1C2=O)C[C@@](O)(C(=O)CO)C[C@@H]3OC1CC(NC(=O)OCc2ccc(CC(=O)NC3CC/C=C/CCC3N)cc2)[C@H](O)C(C)O1` (stereo partly shown) [compound 64, (E)-cyclooctene-doxorubicin conjugate], the doxorubicin released in data set [6] (with 3,6-Diphenyl-1,2,4,5-tetrazine) is 48%; in data set [6] (with 3-(5-Acetamido-2-pyridyl)-6-(2-pyridyl)-1,2,4,5-tetrazine (5)), 30%; in data set [6] (with 3-(5-Butyramido-2-pyridyl)-6-(2-pyrimidyl)-1,2,4,5-tetrazine), 20%; in data set [6] (with 3-Methyl-6-(2-pyridyl)-1,2,4,5-tetrazine (7)) it was 52%; in data set [6] (with 4-(1,2,4,5-Tetrazin-3-yl)phenylmethanamine) it was 50%. The half-life in data set [5] (setting [10]) was 24 h; in data set [5] (setting [11]), 3.6 h. Besides, the half-inhibitory concentration (IC50) in data set [7] (A-431, 6 h, A431 cell line, 6 h incubation at 37° C. followed by medium replacement) is 128 ± 17 nM; in data set [7] (A-431, 6 h, A431 cell line, in combination with tetrazine 29 (10 μM), 6 h incubation at 37° C. followed by medium replacement) it was 49 ± 4 nM; in data set [7] (A-431, A431 cells, combination of the prodrug 64 and tetrazine 29), 49 ± 4 nM; in data set [7] (A-431, A431 cells, prodrug alone) it was 128 nM.
On to `O=C1CCCC(=O)N1c1ccc(-c2nnc(-c3ccccn3)nn2)nc1`, for which the half-life at 83 µM in data set [1] (PBS buffer, PBS, 20° C.) was 24 h. The “Reactivity ratio (R = k2,TZ/k2,Ref)” value in data set [2] was 1.6.
As for `c1ccc(-c2nnc(-c3ccccn3)nn2)nc1` [compound 2, 3,6-bis(2-pyridyl)-1,2,4,5-tetrazine], the half-life at 83 µM in data set [1] (PBS buffer, PBS, 20° C.) was 44 h.
Still for that read-out and setting: next, `Fc1ccc(-c2nnc(-c3ccc(F)cn3)nn2)nc1`: 115 h.
Take `CCCC(=O)Nc1ccc(-c2nnc(-c3ncccn3)nn2)nc1`: the half-life at 83 µM in data set [1] (PBS buffer, PBS, 20° C.) is 3.2 h. The “Reactivity ratio (R = k2,TZ/k2,Ref)” value in data set [2] was determined as 2.7.
For the compound `c1cncc(-c2nnc(-c3cccnc3)nn2)c1`, the half-life at 83 µM in data set [1] (PBS buffer, PBS, 20° C.) is greater than 150 h. Moreover, the “Reactivity ratio (R = k2,TZ/k2,Ref)” value in data set [2] was 0.19.
With `CCCNC(=O)c1ccc(-c2nnc(-c3ncccn3)nn2)nc1`, in data set [1] (PBS buffer, PBS, 20° C.), the half-life at 83 µM is 0.42 h. In addition, the “Reactivity ratio (R = k2,TZ/k2,Ref)” value in data set [2] was 2.
Regarding `FC(F)(F)c1ccc(-c2nnc(-c3ccc(C(F)(F)F)cn3)nn2)nc1`, the half-life at 83 µM in data set [1] (setting [9]) is 3.6 h.
Consider `c1c[nH]c(-c2nnc(-c3ccc[nH]3)nn2)c1`, for which, in data set [1] (setting [9]), the half-life at 83 µM was greater than 300 h.
Regarding `NCc1ccc(-c2nncnn2)cc1`, in data set [1] (PBS buffer, PBS, 20° C.), the half-life at 83 µM was 183 h. Also, the “Reactivity ratio (R = k2,TZ/k2,Ref)” value in data set [2] turned out to be 0.77.
For `CCCC(=O)Nc1ccc(-c2nnc(-c3ccc(C(F)(F)F)cn3)nn2)nc1`, the half-life at 83 µM in data set [1] (setting [9]) was 35 h.
Compound `NCc1nnc(CN)nn1` [compound 20, 3,6-bis(aminomethyl)-1,2,4,5-tetrazine] gave a half-life at 83 µM in data set [1] (PBS buffer, PBS, 20° C.) of 16 h.
In data set [1] (PBS buffer, PBS, 20° C.), `CCCC(=O)Nc1ccc(-c2nnc(-c3ccc(F)cn3)nn2)nc1` had a half-life at 83 µM of 117 h. The “Reactivity ratio (R = k2,TZ/k2,Ref)” value in data set [2] was 0.95.
In turn, `c1ccc(-c2nncnn2)nc1` had a half-life at 83 µM in data set [1] (PBS buffer, PBS, 20° C.) of 2.7 h.
Regarding `COc1cccc2c1C(=O)c1c(O)c3c(c(O)c1C2=O)C[C@@](O)(C(=O)CO)C[C@@H]3O[C@H]1C[C@H](N)[C@H](O)[C@H](C)O1` [Dox, Doxorubicin, reference compound], the IC50 in data set [7] (A-431, A431 cell line, 6 h incubation at 37° C. followed by medium replacement, read-out: IC50) came to 38 ± 3 nM.
On to `Nc1ccc(-c2nnc(-c3ccccc3)nn2)cc1`, for which, in data set [1] (setting [9]), the half-life at 83 µM is greater than 300 h.
Compound `CCCNC(=O)c1ccc(-c2nnc(-c3ccccn3)nn2)nc1` had a half-life at 83 µM in data set [1] (PBS buffer, PBS, 20° C.) of 4 h.
In the case of `Oc1ccc(-c2nnc(-c3ccc(O)cc3)nn2)cc1` [compound 11, 3,6-bis(4-hydroxyphenyl)-1,2,4,5-tetrazine], in data set [1] (setting [9]), the half-life at 83 µM was greater than 300 h.
Take `Nc1ccccc1-c1nnc(-c2ccccc2N)nn1` [compound 9, 3,6-bis(2-aminophenyl)-1,2,4,5-tetrazine]: the half-life at 83 µM in data set [1] (setting [9]) was greater than 300 h. Besides, in data set [8], the “Reactivity ratio (R = k2,TZ/k2,Ref)” value was <0 .01*.
Turning to `c1cc(-c2nnc(-c3ccncc3)nn2)ccn1`, in data set [1] (PBS buffer, PBS, 20° C.), the half-life at 83 µM is 2.4 h. Moreover, in data set [2], the “Reactivity ratio (R = k2,TZ/k2,Ref)” value came out at 0.83.
For `Cc1cccc(C)c1OC(=O)NC1CC/C=C/CCC1N` (stereo not shown) [compound 43], in data set [3], the half-life at 83 µM is greater than 480 h.
Take `Nc1cccc(-c2nnc(-c3ccccc3)nn2)c1`: the half-life at 83 µM in data set [1] (setting [9]) is greater than 300 h.
Regarding `CC(C)(C)c1ccccc1OC(=O)NC1CC/C=C/CCC1N` (stereo not shown) [compound 45], the half-life at 83 µM in data set [3] is greater than 480 h.
`CCCC(=O)Nc1ccc(-c2nncnn2)nc1` showed a half-life at 83 µM in data set [1] (PBS buffer, PBS, 20° C.) of 10.3 h. Further, in data set [2], the “Reactivity ratio (R = k2,TZ/k2,Ref)” value was 2.8.
With `Cc1ccccc1OC(=O)NC1CC/C=C/CCC1N` (stereo not shown) [compound 39], in data set [3], the half-life at 83 µM was 192 h.
